Values joined by “and” are separate entries in the source; they are usually repeats but may differ in a detail not shown here. Equal values may be shown once.
Tests used:
[1] = Solubility in aqueous media; type: physicochemical
skeletal muscle = assay: pO2 measurement in the control (non-ligated) hind limb muscle; type: in vivo, Cat; settings: individual cats
Protocol: A p02― electrode was inserted in the muscle tissue (m. gastrocnemius) of both hindlegs of an anaesthetized cat. After recording the p02 of the normal perfused muscle, the blood flow to one measuring site was restricted by ligating the femoral artery. […] The values were constant after 30 to 60 min. After having reached a constant level of p02, the vehicle was given, followed by the test substance.

[2] = system: ischaemic skeletal muscle; assay: Skeletal muscle contractility with restricted femoral blood flow; type: in vivo, Cat
Protocol: (§1) Cats of either sex were anaesthetized with urethane/chloralose (120/60 mg/kg i.p. In the course of the experiments, pentobarbital was injected intravenously (V. antebrachii ceph.) via a plastic tube. The intraduodenal (i.d.) application of compound weas conducted by means of a plastic catheter, which was inserted into the duodenum.
Cats of either sex were anaesthetized as for p02 measurement. After dissection of the skin of the calf muscles, the sciatic nerve was cut about 3 cm proximal to the knee. The tendon of the calf muscles was cut and connected with an isometric force transducer (SWEMA, SG 3). In order to maintain constant differences and a resting tension of 100 p, the hind limb was fixed at the tibia by means of a clamp. Direct stimulation of the muscles consisted of square wave pulses of a 4 msec duration at a frequency of 2 Hz and at a voltage of 50 V. In order to keep the muscles wet and at a normal temperature, the muscles were continuously superfused by means of a NaCI-solution (0.9%, 38°C). Femoral blood flow was restricted by a graded occlusion of the artery leading to a reduction of contractility by ca. 30%. After having reached a constant level of the contraction force, the vehicle (NaCI and Methocel®, respectively) was injected, followed by the test substance.

[3] = Blood pressure changes during the contractility experiment; type: in vivo, Cat
[4] = system: ischaemic skeletal muscle; assay: pO2 measurement in ischaemic skeletal muscle (m. gastrocnemius, femoral artery ligated), Pt-needle electrodes; type: in vivo, Cat
Protocol: as §1
The reference electrode, and Ag/AgCl system was sputtered on the glass mantle of the cathode, or it was a separate electrode. The cathode was coated with a polystyrol and a collodium membrane. A constant voltage supply provided a polarizing voltage between 600 and 800 mV. The reducing current was measured by a nano-ampere amplifying meter. The- cathode was inserted in the tissue by means of a motor-driven micromanipulator.
A p02― electrode was inserted in the muscle tissue (m. gastrocnemius) of both hindlegs of an anaesthetized cat. After recording the p02 of the normal perfused muscle, the blood flow to one measuring site was restricted by ligating the femoral artery. […] After having reached a constant level of p02, the vehicle was given, followed by the test substance.
The mean value and the standard deviation were calculated, in order to check the significance of the effect.

[5] = Acute oral toxicity (LD50); settings: mouse, in vivo; mice, per oral

CCCCn1c(=O)c2c(ncn2CC(C)=O)n(CCCC)c1=O [Compound A, 1,3-di-n-butyl-7-(2-oxopropyl)xanthine]
solubility in aqueous media [1]: only sparingly soluble
effect of Compound A 125 μg/kg i.v. ΔpO2 (Torr) (skeletal muscle; 125 μg/kg i.v.): 19.3 (p≤0.01) Torr and 3.4 (p≤0.01) Torr and 13.2 (p≤0.01) Torr and 3.8 (p≤0.01) Torr and 3.5 (p≤0.01) Torr
t (min), time interval to reach initial values, muscle contract. ([2]; 50 µg/kg i.v.): >60 min
t (min), time interval to reach initial values, muscle contract. ([2]; 125 µg/kg i.v.): >60 min
t (min), time interval to reach initial values, muscle contract. ([2]; 313 µg/kg i.v., n = 1): >60 min
Δ muscle contract. ([2]; 313 µg/kg i.v., n = 1): +25.0 n = 1 percentage of initial values
contractility (% initial value) ([2]; i.d., 125 µg/kg): 32 (125 µg) % initial value
contractility (% initial value) ([2]; i.v., 50 µg/kg): 36 (50 µg) % initial value
t (min), time interval to reach initial values, initial phase BP decrease ([3]; 50 µg/kg i.v.): 2 min
t (min), time interval to reach initial values, second phase BP increase ([3]; 50 µg/kg i.v.): 33 min
t (min), time interval to reach initial values, initial phase BP decrease ([3]; 125 µg/kg i.v.): 3 min
t (min), time interval to reach initial values, second phase BP increase ([3]; 125 µg/kg i.v.): 32 min
Δ second phase BP increase X̄ ± S ([3]; 125 µg/kg i.v.): +10.8 ± 8.3 percentage of initial values
t (min), time interval to reach initial values, initial phase BP decrease ([3]; 313 µg/kg i.v., n = 1): 2 min
t (min), time interval to reach initial values, second phase BP increase ([3]; 313 µg/kg i.v., n = 1): 6 min
Δ initial phase BP decrease ([3]; 313 µg/kg i.v., n = 1): −25.0 n = 1 percentage of initial values
Δ second phase BP increase ([3]; 313 µg/kg i.v., n = 1): +15.0 n = 1 percentage of initial values
effect of Compound A 125 μg/kg i.v. ΔpO2 (Torr) ([4]; hind limb art. lig., 125 μg/kg i.v., individual cats): 5.6 (p≤0.01) Torr and 6.2 (p≤0.01) Torr and 7.3 (p≤0.01) Torr and 5.2 (p≤0.01) Torr and 27.1 (p≤0.01) Torr and 11.2 (p≤0.01) Torr
pO2 (mmHg) (increase) ([4]; i.d., 50 µg/kg): 4 (50 µg) mmHg
pO2 (mmHg) (increase) ([4]; i.v., 125 µg/kg): 10 (125 µg) mmHg
LD50 [5]: > 1000 mg/kg

CC(=O)CCCCn1c(=O)c2c(ncn2C)n(C)c1=O [Compound B, pentoxyphylline]
effect of Compound B in relation to Compound A (%) (skeletal muscle; B 5 mg/kg i.v. vs A 125 μg/kg i.v.): 74.3% and 0% (3×) and 27%
contractility (% initial value) ([2]; i.d., 32 mg/kg): 23 (32 mg) % initial value
contractility (% initial value) ([2]; i.v., 5 mg/kg): 9 (5 mg) % initial value
effect of Compound B 5 mg/kg i.v. ΔpO2 (Torr) ([4]; hind limb art. lig., 5 mg/kg i.v., individual cats): 1.3 (p≤0.01) Torr and 1.6 (p≤0.01) Torr and 4.9 (p≤0.01) Torr and 7.3 (p≤0.01) Torr
effect of Compound B in relation to Compound A (%) ([4]; hind limb art. lig., B 5 mg/kg i.v. vs A 125 μg/kg i.v., individual cats): 22.9% and 26.6% and 0% (2×) and 17.9% and 65.6%
pO2 (mmHg) (increase) ([4]; i.d., 12.5 mg/kg): 3 (12.5 mg) mmHg
pO2 (mmHg) (increase) ([4]; i.v., 5 mg/kg): 2 (5 mg) mmHg

CCCCn1c(=O)c2c(ncn2CCC(C)=O)n(CCCC)c1=O [Compound C, 1,3-di-butyl-7-(3-oxobutyl)xanthine, reference compound]
contractility (% initial value) ([2]; i.d., 12.5 mg/kg): 22 (12.5 mg) % initial value
pO2 (mmHg) (increase) ([4]; i.d., 32 mg/kg): 6 (32 mg) mmHg
